One may read the IC50 as the concentration that gives 50% inhibition. For orientation: ED50 means the dose at which the effect has come halfway, by size or by number of responders. A low value points to greater potency. One may read the inhibition in vivo as the drop in the measured response relative to a control, in per cent. High values mean strong suppression, low ones little suppression.

The target in test [1] is Prostaglandin G/H synthase 1 (Homo sapiens, UniProt P23219).
The species named for test [2] is Rattus norvegicus. The test can be described thus: animal or person. In kind it is functional.
For test [3], the species on record is Rattus norvegicus. The experiment in a line: animal or person. In kind it is functional. The source holds these as a separate data set.
The species entered for test [4] is Rattus norvegicus. The experiment in a line: animal or person. In kind it is functional. This is another data set of the same source.
The species named for test [5] is Rattus norvegicus. The test can be described thus: animal or person. In kind it is functional. The source holds these as a separate data set.

Sequence of Prostaglandin G/H synthase 1 (P23219 whole entry): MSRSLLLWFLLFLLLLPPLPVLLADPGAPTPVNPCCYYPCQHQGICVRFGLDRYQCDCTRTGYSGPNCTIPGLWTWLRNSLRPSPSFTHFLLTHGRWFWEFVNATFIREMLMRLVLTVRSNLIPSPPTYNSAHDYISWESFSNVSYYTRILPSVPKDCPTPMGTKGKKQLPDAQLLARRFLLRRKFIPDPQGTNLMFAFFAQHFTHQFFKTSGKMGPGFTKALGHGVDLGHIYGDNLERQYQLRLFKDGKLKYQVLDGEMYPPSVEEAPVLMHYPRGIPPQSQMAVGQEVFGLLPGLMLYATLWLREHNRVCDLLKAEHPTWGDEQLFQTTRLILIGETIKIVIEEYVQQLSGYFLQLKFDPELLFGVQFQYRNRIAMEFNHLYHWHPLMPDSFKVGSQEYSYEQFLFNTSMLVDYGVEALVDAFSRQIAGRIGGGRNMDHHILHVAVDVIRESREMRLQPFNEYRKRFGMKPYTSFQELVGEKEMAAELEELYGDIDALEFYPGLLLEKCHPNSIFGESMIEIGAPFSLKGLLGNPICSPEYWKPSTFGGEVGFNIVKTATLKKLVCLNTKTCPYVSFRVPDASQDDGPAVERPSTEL

In turn, `CS(=O)(=O)c1ccc(-c2cc3ccccc3cc2-c2ccc(F)cc2)cc1` gave a half-maximal inhibitory concentration (IC50) in test [1] above 100 µM.

In the case of `NS(=O)(=O)c1ccc(-c2ccccc2-c2ccc(F)cc2)cc1`, the ED50 is above 50 mg/kg in the test filed under Rattus norvegicus [2] and 1.5 mg/kg in the test listed under Rattus norvegicus [3].

In the test filed under Rattus norvegicus [4], `CS(=O)(=O)c1ccc(-c2cc3c(cc2-c2ccc(F)cc2)OCO3)cc1` gave an inhibition in vivo at 2 mg/kg of 0%.

`NS(=O)(=O)c1ccc(-c2cc3c(cc2-c2ccc(F)cc2)OCO3)cc1` returned an inhibition in vivo at 2 mg/kg in the test filed under Rattus norvegicus [4] of 26%.

Turning to `NS(=O)(=O)c1ccc(-c2cc(F)c(F)cc2-c2ccc(F)c(Cl)c2)cc1`, the ED50 in the test filed under Rattus norvegicus [5] turned out to be 38.7 mg/kg; in the test listed under Rattus norvegicus [3], 0.05 mg/kg.

For `CS(=O)(=O)c1ccc(-c2c(F)c(F)c(F)c(F)c2-c2ccc(F)cc2)cc1`, the IC50 in test [1] is above 100 µM.

`CS(=O)(=O)c1ccc(-c2cc(F)c(F)cc2-c2ccc3c(c2)OCCO3)cc1` came in with an IC50 in test [1] above 100 µM.

As for `CS(=O)(=O)c1ccc(-c2cc(Cl)c(Cl)cc2-c2ccc(F)cc2)cc1`, in test [1], the IC50 is above 100 µM.

Turning to `CS(=O)(=O)c1ccc(-c2nccnc2-c2ccc(F)cc2)cc1`, the IC50 in test [1] is above 100 µM.

`COc1c(Cl)cc(-c2cc(F)c(F)cc2-c2ccc(S(C)(=O)=O)cc2)cc1Cl` had an IC50 in test [1] above 100 µM.

Values taken from ChEMBL document CHEMBL1129066, “Novel terphenyls as selective cyclooxygenase-2 inhibitors and orally active anti-inflammatory agents” (J Med Chem, 1996).
